Experimental data: patent US11446287B2, “Compounds and methods for EP300 or CBP modulation and indications therefor” (Opna Immuno-Oncology SA, priority 2019, dated 2022)

target: T1, Recombinant human BRD4 containing dual bromodomains (BRD4-BD12 (1-477)) (Homo sapiens, UniProt O60885); experiment: BRD4 Alphascreen binding assay
T1 construct: Recombinant human BRD4 containing dual bromodomains (BRD4-BD12 (1-477)); made in house; host or cells: E. coli BL21-CodonPlus (DE3), modified pET vector
Outline: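 AlphaScreen proximity between Ni-chelate-bound BRD4-BD12 (1-477) and streptavidin-captured H4 K5/K8/K12/K16-acetyl peptide measured after 1 h room-temperature compound incubation and 30 min with 7.5 μg/ml beads. Buffer: 50 mM HEPES pH 7.5, 50 mM NaCl, 0.01% BSA, 0.01% Triton X-100; data plate-normalized and four-parameter fit for IC50.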

| SMILES | IC50 |
| --- | --- |
| CCOc1ccc(C(=O)O)cc1-n1cc(-c2ccccc2)c2ncc(-c3c(C)noc3C)cc21 [P-0225, 3-(6-(3,5-dimethylisoxazol-4-yl)-3-phenyl-1H-pyrrolo[3,2-b]pyridin-1-yl)-4-ethoxybenzoic acid] | 1 to 8 µM |
| Cc1noc(C)c1-c1cnc2c(c1)c(-c1ccc(C(=O)O)cc1OC(F)(F)F)cn2C1CCOCC1 [P-0226, 4-(5-(3,5-dimethylisoxazol-4-yl)-1-(tetrahydro-2H-pyran-4-yl)-1H-pyrrolo[2,3-b]pyridin-3-yl)-3-(trifluoromethoxy)benzoic acid] | 1 to 8 µM |
| Cc1noc(C)c1-c1cnc2c(c1)c(-c1ccc(C(=O)O)cc1OC(F)(F)F)cn2C1CCC(F)(F)CC1 [P-0227, 4-(1-(4,4-difluorocyclohexyl)-5-(3,5-dimethylisoxazol-4-yl)-1H-pyrrolo[2,3-b]pyridin-3-yl)-3-(trifluoromethoxy)benzoic acid] | 1 to 8 µM |
| Cc1noc(C)c1-c1cnc2c(c1)c(-c1ccc(C(=O)O)cc1OC(F)(F)F)c(C)n2-c1ccccn1 [P-0228, 4-(5-(3,5-dimethylisoxazol-4-yl)-2-methyl-1-(pyridin-2-yl)-1H-pyrrolo[2,3-b]pyridin-3-yl)-3-(trifluoromethoxy)benzoic acid] | 1 to 8 µM |
| Cc1noc(C)c1-c1cnc2c(-c3ccc(F)cc3F)cn(-c3ccc(C(=O)O)cc3OC(F)(F)F)c2c1 [P-0229, 4-(3-(2,4-difluorophenyl)-6-(3,5-dimethylisoxazol-4-yl)-1H-pyrrolo[3,2-b]pyridin-1-yl)-3-(trifluoromethoxy)benzoic acid] | 1 to 8 µM |
| Cc1noc(C)c1-c1cnc2c(c1)c(-c1c(F)cc(C(=O)O)cc1OC(F)(F)F)cn2C(C1CC1)C1CC1 [P-0230, 4-(1-(dicyclopropylmethyl)-5-(3,5-dimethylisoxazol-4-yl)-1H-pyrrolo[2,3-b]pyridin-3-yl)-3-fluoro-5-(trifluoromethoxy)benzoic acid] | 1 to 8 µM |
| Cc1ccccc1-n1cc(-c2ccc(C(=O)O)cc2OC(F)(F)F)c2cc(-c3c(C)noc3C)cnc21 [P-0231, 4-(5-(3,5-dimethylisoxazol-4-yl)-1-(o-tolyl)-1H-pyrrolo[2,3-b]pyridin-3-yl)-3-(trifluoromethoxy)benzoic acid] | 8 to 1000 µM |
| Cc1noc(C)c1-c1cnc2c(c1)c(-c1ccc(C(=O)O)cc1OC(F)(F)F)cn2-c1ccc(F)cc1F [P-0232, 4-(1-(2,4-difluorophenyl)-5-(3,5-dimethylisoxazol-4-yl)-1H-pyrrolo[2,3-b]pyridin-3-yl)-3-(trifluoromethoxy)benzoic acid] | 1 to 8 µM |
| Cc1noc(C)c1-c1cnc2c(c1)c(-c1ccc(C(=O)O)cc1OC(F)(F)F)cn2-c1cc(F)ccc1F [P-0233, 4-(1-(2,5-difluorophenyl)-5-(3,5-dimethylisoxazol-4-yl)-1H-pyrrolo[2,3-b]pyridin-3-yl)-3-(trifluoromethoxy)benzoic acid] | 1 to 8 µM |
| Cc1noc(C)c1-c1cnc2c(-c3ccc(C(=O)O)cc3F)c(C(F)(F)F)n([C@@H](C)c3ccccn3)c2c1 [P-0234, (S)-4-(6-(3,5-dimethylisoxazol-4-yl)-1-(1-(pyridin-2-yl)ethyl)-2-(trifluoromethyl)-1H-pyrrolo[3,2-b]pyridin-3-yl)-3-fluorobenzoic acid] | 1 to 8 µM |
| Cc1cc(C(=O)O)ccc1-c1c(C(F)(F)F)n([C@@H](C)c2ccccn2)c2cc(-c3c(C)noc3C)cnc12 [P-0235, (S)-4-(6-(3,5-dimethylisoxazol-4-yl)-1-(1-(pyridin-2-yl)ethyl)-2-(trifluoromethyl)-1H-pyrrolo[3,2-b]pyridin-3-yl)-3-methylbenzoic acid] | 8 to 1000 µM |
| COc1cc(C(=O)O)ccc1-c1c(C(F)(F)F)n([C@@H](C)c2ccccn2)c2cc(-c3c(C)noc3C)cnc12 [P-0236, (S)-4-(6-(3,5-dimethylisoxazol-4-yl)-1-(1-(pyridin-2-yl)ethyl)-2-(trifluoromethyl)-1H-pyrrolo[3,2-b]pyridin-3-yl)-3-methoxybenzoic acid] | 1 to 8 µM |
| Cc1noc(C)c1-c1cnc2c(-c3cn(C)nc3C3CC3)c(C(F)(F)F)n([C@@H](C)c3ccccn3)c2c1 [P-0237, (S)-4-(3-(3-cyclopropyl-1-methyl-1H-pyrazol-4-yl)-1-(1-(pyridin-2-yl)ethyl)-2-(trifluoromethyl)-1H-pyrrolo[3,2-b]pyridin-6-yl)-3,5-dimethylisoxazole] | 1 to 8 µM |
| Cc1noc(C)c1-c1cnc2c(-c3cc(C(=O)O)ccc3F)c(C(F)(F)F)n([C@@H](C)c3ccccn3)c2c1 [P-0238, (S)-3-(6-(3,5-dimethylisoxazol-4-yl)-1-(1-(pyridin-2-yl)ethyl)-2-(trifluoromethyl)-1H-pyrrolo[3,2-b]pyridin-3-yl)-4-fluorobenzoic acid] | 1 to 8 µM |
| COc1ccc(C(=O)O)cc1-c1c(C(F)(F)F)n([C@@H](C)c2ccccn2)c2cc(-c3c(C)noc3C)cnc12 [P-0239, (S)-3-(6-(3,5-dimethylisoxazol-4-yl)-1-(1-(pyridin-2-yl)ethyl)-2-(trifluoromethyl)-1H-pyrrolo[3,2-b]pyridin-3-yl)-4-methoxybenzoic acid] | 8 to 1000 µM |
| Cc1noc(C)c1-c1cnc2c(-c3cc(F)cc(C(=O)O)c3)c(C(F)(F)F)n([C@@H](C)c3ccccn3)c2c1 [P-0240, (S)-3-(6-(3,5-dimethylisoxazol-4-yl)-1-(1-(pyridin-2-yl)ethyl)-2-(trifluoromethyl)-1H-pyrrolo[3,2-b]pyridin-3-yl)-5-fluorobenzoic acid] | 8 to 1000 µM |
| Cc1noc(C)c1-c1cnc2c(-c3cc(Cl)cc(C(=O)O)c3)c(C(F)(F)F)n([C@@H](C)c3ccccn3)c2c1 [P-0241, (S)-3-chloro-5-(6-(3,5-dimethylisoxazol-4-yl)-1-(1-(pyridin-2-yl)ethyl)-2-(trifluoromethyl)-1H-pyrrolo[3,2-b]pyridin-3-yl)benzoic acid] | 8 to 1000 µM |
| Cc1noc(C)c1-c1cnc2c(-c3ccc(C(=O)O)c(F)c3)c(C(F)(F)F)n([C@@H](C)c3ccccn3)c2c1 [P-0242, (S)-4-(6-(3,5-dimethylisoxazol-4-yl)-1-(1-(pyridin-2-yl)ethyl)-2-(trifluoromethyl)-1H-pyrrolo[3,2-b]pyridin-3-yl)-2-fluorobenzoic acid] | 8 to 1000 µM |
